The text below walks through data of patent US7196105B2, “Treatment of human multiple myeloma by curcumin” (Research Development Foundation, priority 2002, dated 2007).

Holding throughout (format): cell-based, human
One assay concerns cyclin D1. The assay can be described thus: Western blot for NF-κB-regulated gene product cyclin D1 in U266 cells. The conditions noted are these: curcumin 50 μM. The protocol: (§1) Sixty micrograms of cytoplasmic extracts were resolved on 10% SDS-PAGE gel, electrotransferred on a nitrocellulose membrane, and probed for the following: IκBα (FIG. 4A); Bcl-2 (FIG. 4B); Bcl-xL (FIG. 4C) and cyclin D1 (FIG. 4D). The same blots were stripped and reprobed with anti-β-actin antibody to show equal protein loading (lower panel in each figure). FIG. 4E: […] U266, MM.1 or RPMI 8226 cells (1×10^7) were treated with curcumin ([…]) in 5 ml of medium for the indicated times. Supernatants were harvested and concentrated approximately 20×, and IL-6 was quantitated by an IL-6 ELISA kit. Values shown were normalized to 1 ml of un-concentrated supernatants. Thirty to fifty micrograms of cytoplasmic protein extracts prepared as described (Chaturvedi et al., 2000) were resolved on 10% SDS-PAGE gel. After electrophoresis, the proteins were electrotransferred to a nitrocellulose membrane, blocked with 5% nonfat milk, and probed with antibodies against either IkBa, phospho-IkBa, Bcl-2, Bcl-xL, or cyclin D1 (1:3000) for 1 h. Thereafter, the blot was washed, exposed to HRP-conjugated secondary antibodies for 1 h, and finally detected by chemiluminescence (ECL, Amersham Pharmacia Biotech., Arlington Heights, Ill.).
On the technique in general: In western blotting, separated proteins are transferred to a membrane and probed.

Assay [1] deals with multiple myeloma cell lines (U266, RPMI 8226, MM.1, MM.1R). The assay can be described thus: Growth/proliferation of all multiple myeloma cell lines tested (statement for all lines). The conditions noted are these: curcumin 10 μM. An excerpt:
The results are shown as the mean (±s. d.) cell count from triplicate cultures.

For a further assay, the system named is IκBα. The assay can be described thus: Western blot for NF-κB-regulated gene product IκBα in U266 cells. The conditions noted are these: curcumin 50 μM, time course. The protocol:
as §1

Another assay deals with caspase-9. Nature of the assay: Western blot for procaspase-9 (apoptosis). Particulars: U266, curcumin 50 μM, time course. How it is done: The cells were washed and total proteins were extracted by lysing the cells. Sixty microgram of extracts were resolved on 10% SDS-PAGE gel, electrotransferred to a nitrocellulose membrane, and probed with anti-procaspase-9 (FIG. 6C), anti-procaspase-7 (FIG. 6D), anti-PARP (FIG. 6E, upper panel) and anti-cleaved PARP (FIG. 6E, lower penal). […] Lysates were then spun at 14000 rpm for 10 min to remove insoluble material, resolved on 7.5% gel and probed with PARP antibodies. PARP was cleaved from the 116-kDa intact protein into 85-kDa and 40-kDa peptide products. To detect cleavage products of procaspase 7 and procaspase 9, whole cell extracts were resolved on 10% gel and probed with appropriate antibodies.

The subject of a further assay is STAT3. Nature of the assay: Immunocytochemistry for STAT3 in bone marrow CD138+ cells from multiple myeloma patients. Particulars: patients #5, #9 and #10, 50 μM curcumin, 2 h (legend b30: 1 h). The protocol:
The cells were fixed on slides by cytospin centrifugation and immuno-stained for NF-κB or STAT3. Red stain indicates specific staining for NF-κB or STAT3, whereas blue stain indicates the relative position of the nuclei in the corresponding view.
Red stain indicates the specific staining for NF-κB or STAT3 as indicated, whereas blue stain indicates the relative position of the nuclei in the corresponding view.
Untreated or treated multiple myeloma cells were plated on a poly-L-lysine-coated glass slide by centrifugation using a Cytospin 4 (Thermoshendon, Pittsburg, Pa.), air-dried for 1 h at room temperature, and fixed with cold acetone. After a brief washing in PBS, slides were blocked with 5% normal goat serum for 1 h and then incubated either with rabbit polyclonal anti-human NF-κB p65 antibody (SC-109; dilution, 1:100) or with anti-human STAT3 antibody (SC-482; dilution, 1:100). After overnight incubation, the slides were washed and then incubated with goat anti-rabbit IgG-Alexa 594 (A-11037; dilution, 1:100) for 1 h and counter-stained for nuclei with Hoechst (50 ng/ml) for 5 min. Stained slides were mounted with mounting medium (Sigma Colo.) and analyzed under an epifluorescence microscope (Labophot-2, Nikon, Tokyo, Japan). […]

Assay [2] deals with CD138+ cells from multiple myeloma patients. The assay can be described thus: Viability of bone marrow CD138+ cells from multiple myeloma patients (MTT or trypan blue). Particulars: 24 h. The protocol: (§2) Briefly, cells (5000/well) were incubated in triplicate in a 96-well plate in the presence or absence of indicated test samples in a final volume of 0.1 ml for 24 h at 37° C. Thereafter, 0.025 ml of MTT solution (5 mg/ml in PBS) was added to each well. After a 2 h incubation at 37 ° C., 0.1 ml of extraction buffer (20% SDS, 50% dimethylformamide) was added. Incubation was continued for overnight at 37 ° C., and then the OD at 590 nm was measured using a 96-well multiscanner autoreader (Dynatech MR 5000), with extraction buffer as blank. Percent cell viability=(OD of the experiment samples/OD of the control)×100.

Assay [3] has as its system U266 cells. Nature of the assay: Proliferation by thymidine incorporation. Particulars: U266, 24 h, different concentrations. How it is done:
FIG. 6A: U266 cells (5000 cells/0.1 ml) were incubated with different concentrations of curcumin for 24 hours, and cell proliferation assay was performed as described. Results are shown as mean (±s.d.) of percent [^3H}-thymidine incorporation of triplicate cultures compared to untreated control. FIG. 6B: U266 cells (5000 cells/0.1 ml) were incubated with different concentrations of curcumin for 24 hours, and cell viability was determined by MTT method. The results are shown as the mean (±s.d.) percent viability from triplicate cultures. The antiproliferative effects of curcumin were also monitored by the thymidine incorporation method. Five thousand cells in […] medium were cultured in triplicate in 96-well plates in the presence or absence of curcumin for 24 h. Six hours before the completion of experiment, the cells were pulsed with […] ^3H-thymidine, and the uptake of ^3H-thymidine was monitored using a Matrix-9600 b-counter (Packard Instruments, Downers Grove, Ill.).
(Incorporation of labelled thymidine or its analogues reports DNA synthesis.)

The test system of assay [4] is U266 cells. The assay can be described thus: Cell viability by MTT method. The conditions noted are these: U266, 24 h, different concentrations. The protocol:
The results are shown as the mean (±s.d.) percent viability from triplicate cultures.
as §2
(Formazan colour is commonly taken as a measure of viable cells.)

Entries after “also recorded” stand apart in the source; their conditions may differ. Bounds are passed on as bounds.

`COc1cc(/C=C/C(=O)CC(=O)/C=C/c2ccc(O)c(OC)c2)ccc1O` [curcumin, diferuloylmethane]: the “time to complete depletion of cyclin D1” value in the assay on cyclin D1 is no more than 4 h. The suppression of growth/proliferation result in assay [1] is “completely suppressed the growth; also recorded: almost complete inhibition of proliferation”. Moreover, in the assay on IκBα, the IκBα protein level entry is recorded as “only a partial decline”. In addition, the “activation of caspase-9 (disappearance of 47-kDa band)” value in the assay with caspase-9 is reported as “time-dependent activation”. Moreover, the “constitutive STAT3 activation (nuclear localization)” value with STAT3 is recorded as “downregulated this transcripion factor”. Further, the cell survival entry in assay [2] (patient #20, indicated concentrations, MTT) is reported as “much more effective in inhibiting the survival of multiple myeloma cells than dexamethasone”; in assay [2] (patients #7, #9 and #10, different concentrations), “decreased cell survival in a dose-dependent manner”. Further, the thymidine incorporation entry with U266 cells [3] was “suppressed thymidine incorporation within 24 h in a dose-dependent manner”. Further, in the assay on U266 cells [4], the “cell viability / mitochondrial activity (MTT)” value is listed as “suppressed mitochondrial activity; also recorded: decreased cell survival in a dose-dependent manner”.
